Tests used:
Assay type in all cases: cell-based
p62 protein [1] = target: T1, p62 protein (Homo sapiens, UniProt Q13501); assay: Activity of p62 protein and delivery of ubiquitinated substrate proteins to autophagy by immunofluorescence staining (p62, FK2) and confocal microscopy; parameters: endogenous in cells; host or cells: HeLa; details: Hela cell line, 1 uM, 6 hours
Description: Immunofluorescence staining was performed using p62 and FK2 as markers to determine the level of the activity of p62 protein of the compounds (Examples 1-20). In order to determine the level of p62 activity and autophagy activity by the novel p62 ligand and its isomers in the cultured cells, the Hela cell line derived from cervical cancer patients was treated with a novel p62 ligand compound (Example 1 (ATB10048), Example 2 (ATB10047), Example 3 (ATB10049), Example 5 (ATB10050), Example 4 (ATB10051), Example 7 (ATB10052), Example 6 (ATB10056), Example 8 (ATB10057), Example 9 (ATB10060), Example 10 (ATB10072), Example 11 (ATB10075), Example 12 (ATB10078), […], Example 14 (ATB10080), Example 15 (ATB10081), Example 16 (ATB10087)), Example 17 (ATB0096), Example 18 (ATB10097), Example 19 (ATB10099) and Example 20 (ATB10100)) and cultured, and then the level of puncta expression and location of FK2, which was a marker of the protein to be delivered to and degraded in the autophagy through the mediation of the intracellular ubiquitinated p62, and the puncta local co-existence with p62 were observed.
For immunofluorescence staining, a cover glass was placed on a 24-well plate, cells were dispensed and cultured for 24 hours, and then 1 uM of the novel p62 ligand according to the present invention was treated. After culturing for an additional 6 hours for the action of the compound, the medium was removed, and the cells were fixed using formaldehyde at room temperature. In order to prevent non-specific staining, the cells were reacted with a blocking solution at room temperature for 1 hour, and then the LC3 antibody diluted at a certain ratio was treated with a blocking solution and then reacted at room temperature for 1 hour. After the antibody-treated cells were washed 3 times with PBS, the goat-derived secondary antibody was diluted at a certain ratio using the blocking solution, and then reacted at room temperature for 30 minutes. After further washing with PBS three times, and DAPI staining was performed for intracellular nuclear staining. Then, the level of expression of p62 or FK2, the level of intracellular puncta formation, and the level of coexistence in the cells were observed by a confocal microscope.

p62 protein [2] = target: T1, p62 protein; assay: Activity of p62 protein and delivery to autophagosome by immunofluorescence staining (p62, LC3-GFP) and confocal microscopy; parameters: endogenous in cells; host or cells: HeLa; details: Hela-LC3-GFP cell line, 5 uM, 24 hours
Description: Immunofluorescence staining was performed using p62 and FK2 marker to determine the level of activity of p62 protein of the compounds (Examples 1-20). In order to determine the level of p62 activity and autophagy activity by the novel p62 ligand and its isomers in cultured cells, Hela-LC3-GFP cell line derived from cervical cancer patients was treated with the novel p62 ligand compounds (Example 2 (ATB10047), Example 3 (ATB10049), Example 4 (ATB10051), Example 6 (ATB10056), Example 9 (ATB10060), Example 12 (ATB10078), Example 16 (ATB10087) and Example (ATB10097)) and cultured. Then, the level of puncta expression and location of LC3-GFP, which is an essential autophagosome marker for macroautophagy, and the puncta local co-existence of p62 were observed.
For immunofluorescence staining, a cover glass was placed on a 24-well plate, cells were dispensed and cultured for 24 hours, and then treated with 5 uM of the novel p62 ligand according to the present invention. The cells were further cultured for an additional 24 hours for the action of the compound, the medium was removed, and the cells were fixed using formaldehyde at room temperature. In order to prevent non-specific staining, the cells were reacted with a blocking solution at room temperature for 1 hour, and then the LC3 antibody diluted at a certain ratio was treated with the blocking solution and then reacted at room temperature for 1 hour. After the antibody-treated cells were washed 3 times with PBS, the goat-derived secondary antibody was diluted at a certain ratio using the blocking solution, and then reacted at room temperature for 30 minutes. The cells were washed again with PBS three times and subjected to DAPI staining for intracellular nuclear staining, and then the level of expression of p62 or LC3, intracellular puncta formation, and intracellular coexistence level were observed by a confocal microscope.

p62 protein [3] = target: T1, p62 protein; assay: Oligomerization activity of p62 protein by immunoblotting; parameters: endogenous in cells; details: HEK293 cell line lysate treated with test compounds for 2 hours at room temperature
Text: In order to evaluate the oligomerization activity efficacy of p62 protein of the compounds (Examples 1-20), HEK293 cell line, which is human embryonic kidney-derived cell, was collected. As representative compounds of the present compounds, the compounds of Examples 1-20 (Example 1 (ATB10048), Example 2 (ATB10047), Example 3 (ATB10049), Example 4 (ATB10051), Example 5 (ATB10050), Example 6 (ATB10056), Example 7 (ATB10052), Example 8 (ATB10057), Example 9 (ATB10060), Example 10 (ATB10072), Example 11 (ATB10075), Example 12 (ATB10078), Example 13 (ATB10079), Example 14 (ATB10080), Example 15 (ATB10081), Example 16 (ATB10087), Example 17 (ATB10096), Example 18 (ATB10097), Example 19 (ATB10099) and Example 20 (ATB10100)) were selected, and in order to measure the activation and oligomerization of the p62 protein in cells according to the treatment with these selected representative compounds, each cell was dispensed into a 100 phi dish. The cells were collected after additional culture for 24 hours so that the cells were completely attached to the surface of the plate, and 100 ul of lysis buffer (20 mM Tris (pH 7.4), 150 mM NaCl, 1% Triton X-100, 2 mM NaF, 2 mM EDTA, 2 mM beta-glycerophosphate, 5 mM sodium orthovanadate, 1 mM PMSF, leupeptin, aproteinin) was injected to each sample, and the cells were lysed. Based on the measured total protein concentration, each sample was treated with the test compounds for 2 hours at room temperature, and then a sample buffer was added and reacted at 95° C. for 10 minutes. 25 ul was taken from the samples after the reaction was completed and dispensed into each well of an acrylamide gel, and immunoblotting was performed.

T1 sequence (Q13501 whole entry): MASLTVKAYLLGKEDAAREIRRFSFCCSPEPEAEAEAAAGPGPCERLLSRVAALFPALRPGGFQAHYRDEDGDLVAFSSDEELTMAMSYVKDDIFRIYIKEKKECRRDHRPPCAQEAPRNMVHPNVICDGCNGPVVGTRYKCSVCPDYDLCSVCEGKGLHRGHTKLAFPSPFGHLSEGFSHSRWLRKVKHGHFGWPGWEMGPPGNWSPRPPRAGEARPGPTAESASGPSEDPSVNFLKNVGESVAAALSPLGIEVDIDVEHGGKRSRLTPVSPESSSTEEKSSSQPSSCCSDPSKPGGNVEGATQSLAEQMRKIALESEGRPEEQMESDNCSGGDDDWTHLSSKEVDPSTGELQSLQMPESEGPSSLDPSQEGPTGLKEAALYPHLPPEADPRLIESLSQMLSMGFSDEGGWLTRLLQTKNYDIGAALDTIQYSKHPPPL

Row | SMILES | delivery of ubiquitinated proteins marked with FK2 to autophagosome mediated by p62 (FIGS. 3a to 3d) (p62 protein [1]) | targeting of activated, oligomerized p62 protein to the autophagosome (FIG. 4) (p62 protein [2]) | p62 protein oligomerization activity (immunoblot, FIGS. 2a to 2d) (p62 protein [3])
1 | O=C(CO)NCc1cc(OCc2ccccc2)ccn1 [Example 4, N-((4-(benzyloxy)pyridin-2-yl)methyl)-2-hydroxyacetamide] | show the efficacy of delivering the proteins to be delivered to and degraded by autophagosome | show the efficacy of targeting them to the autophagosome | increasing the p62 protein oligomerization activity
2 | OCCNCc1ccc(CCc2ccccc2)o1 [Example 16, 2-(((5-phenethylfuran-2-yl)methyl)amino)ethan-1-ol] | show the efficacy of delivering the proteins to be delivered to and degraded by autophagosome | show the efficacy of targeting them to the autophagosome | increasing the p62 protein oligomerization activity
3 | OCCNCc1ccc(OCc2ccccc2)o1 [Example 18, 2-(((5-(benzyloxy)-furan-2-yl)methyl)amino)ethan-1-ol] | show the efficacy of delivering the proteins to be delivered to and degraded by autophagosome | show the efficacy of targeting them to the autophagosome | increasing the p62 protein oligomerization activity
4 | NC(=O)NCc1ccc(OCc2ccccc2)cn1 [Example 6, 1-((5-(benzyloxy)pyridin-2-yl)methyl)urea] | show the efficacy of delivering the proteins to be delivered to and degraded by autophagosome | show the efficacy of targeting them to the autophagosome | increasing the p62 protein oligomerization activity
5 | O=C(CO)NCc1ccc(OCc2ccccc2)cn1 [Example 3, N-((5-(benzyloxy)pyridin-2-yl)methyl)-2-hydroxyacetamide] | show the efficacy of delivering the proteins to be delivered to and degraded by autophagosome | show the efficacy of targeting them to the autophagosome | increasing the p62 protein oligomerization activity
6 | COC(=O)CCNC[C@@H](O)COc1cc(OCc2ccccc2)ccn1 [Example 12, methyl (R)-3-((3-((4-(benzyloxy)pyridin-2-yl)oxy)-2-hydroxypropyl)amino)propanoate] | show the efficacy of delivering the proteins to be delivered to and degraded by autophagosome | show the efficacy of targeting them to the autophagosome | increasing the p62 protein oligomerization activity

From patent publication US20220402873A1, “NOVEL P62 LIGAND COMPOUND, AND COMPOSITION CONTAINING SAME FOR PREVENTING, AMELIORATING, OR TREATING PROTEINOPATHIES” (AUTOTAC INC., priority 2019, published 2022)
